The subject of one data set is mouse jejunum. Particulars: in vivo.
The test system of another data set is NHE3. Put plainly: NHE3 activity in differentiated human enteroid monolayers after nanoparticle delivery of peptide. In kind it is cell-based. The protocol:
NHE3 activity in PS120, Caco-2/BBe cells and human jejunal enteroids was determined fluorometrically (Photon Technologies Incorporated) using the intracellular pH sensitive dye BCECF, as reported (Levine et al., 1993; Sarker et al., 2008; Foulke-Abel et al., 2020). PS120/HA3-NHE3 cells were seeded on glass cover slips and studied at 70-80% confluency. Caco-2/BBe/HA3-NHE3 cells were grown to confluency on Transwell inserts (polyester, 0.4-μm pore size) and studied approximately 14-16 days pod. Human duodenal enteroid monolayers on Transwell inserts were differentiated for 5 days in the absence of Wnt3a, R-spondin, and noggin as described (Noel et al., 2017; Staab et al., 2020).
Rates of Na^+/H^+ exchange were determined as Na^+-dependent alkalinization in the presence of 50-μM HOE-694 (to inhibit all other plasma membrane NHE isoforms) in HCO3-free solutions, with internal calibration using the nigericin/K+ method, as previously described (Sarker et al., 2008; Foulke-Abel et al., 2020). Kinetic analysis was used for PS120 cell studies (expressed as Vmax) and initial rates (ΔpH/min) for Caco-2/BBe cells, mouse intestine in vitro, and human enteroids. For in vitro mouse jejunal transport studies, NHE3 activity (in the presence of 50-μM HOE-694) was measured using SNARF-4F at 37° C. in a perfusion chamber using a two-photon microscope (Olympus FV1000) and 25× objective, as described (Murtazina et al., 2011).
PBAE polymer and peptide were separately dissolved in pH 7.4 150-mM PBS and combined at a 1:1 volume ratio. Final concentrations of the components were 6-ng/μL peptide and 180-ng/μL polymer (30:1 polymer: peptide weight ratio). Polymer and peptide nanoparticles were allowed to self-assemble at room temperature for 10 minutes. For characterization, nanoparticles were diluted 1:5 in PBS. Hydrodynamic diameter and zeta potential were measured using a Malvern Zetasizer Pro (Malvern Panalytical, Malvern, UK). Stability was assessed by incubating nanoparticles at RT up to 45 minutes then measuring hydrodynamic diameter over 45 minutes. […]

Another data set deals with mouse ileal loops. In words: Basal fluid absorption in closed mouse ileal loops, nanoparticle-conjugated peptides, with or without Tenapanor. As to conditions: for residual fluid / fluid absorption in closed ileal loops compared to CP2: nanoparticle conjugated peptide 400 nM for 4 h, then 150-μL PBS for 30 min. In kind it is in vivo. The protocol:
All in vivo studies were performed on 8-12 week old C57B1/6N mice anesthetized with isofluorane and kept at 37° C. via heating lamps and rectal thermal probes.
Effect on basal fluid transport and effect of Tenapanor. Mice operated on as above had 3-4 cm closed ileal loops inoculated with 150-μL PBS containing 400-nM nanoparticle-CP-2 or -N3SP-1Δ7. After 4 h, the loops were drained and inoculated with 150-μL PBS. 30 min later, the animals were sacrificed and loop weight/length determined. In parallel studies, Tenapanor (10 μM) was present in both incubation periods. Similar to the BODIPY-conjugated peptide studies, the effects of nanoparticle-CP-2 or N3SP-1Δ7 (4 μM) compared to PBS alone were determined on net fluid secretion produced by inoculation of 0.1-μg CTx. The nanoparticle-peptides plus 0.1-μg CTx in 150-μL PBS were inoculated in 3-4 cm long closed ileal loops. Additional controls included loops exposed only to 150-μL PBS and those only exposed to the CTx/PBS. 4 h later, the animals were sacrificed and loop weight/cm length was determined.

Data set [1] can be described thus: Nanoparticle characterization: hydrodynamic diameter, zeta potential, stability. As to conditions: CR5 with peptide, 30:1 polymer:peptide weight ratio. The class given is physicochemical. The protocol:
PBAE polymer and peptide were separately dissolved in pH 7.4 150-mM PBS and combined at a 1:1 volume ratio. Final concentrations of the components were 6-ng/μL peptide and 180-ng/μL polymer (30:1 polymer: peptide weight ratio). Polymer and peptide nanoparticles were allowed to self-assemble at room temperature for 10 minutes. For characterization, nanoparticles were diluted 1:5 in PBS. Hydrodynamic diameter and zeta potential were measured using a Malvern Zetasizer Pro (Malvern Panalytical, Malvern, UK). Stability was assessed by incubating nanoparticles at RT up to 45 minutes then measuring hydrodynamic diameter over 45 minutes. Nanoparticles were made immediately prior to each experiment.

For the substance “N3SP-1 lacking first seven N-terminal amino acids: RPSTVEASVSYLLRESASAVCLDMQSLEQRR [Peptide N3SP-1Δ7]”, the “effect on CTx-stimulated net fluid secretion (loop weight/cm)” value in the data set on mouse jejunum was “did not alter the efficacy”. For the same substance, the “NHE3 activity after FSK, % of same peptide without FSK” value in the data set on NHE3 (nanoparticles (250 nM) 18 h, FSK exposure, n=4) is listed as 88.0%. Also, the “increase of basal NHE3 activity compared to CP-2” value in the data set with NHE3 (nanoparticles added apically (250 nM) for 18 h, n=4, p=0.043) is on record as 36.0%. Moreover, the “residual fluid / fluid absorption in closed ileal loops compared to CP2” value was “increased fluid absorption” in the data set on mouse ileal loops and “significantly less amount of residual fluid” in the data set with mouse ileal loops (listed as N3SP-147). For the same substance, the “residual fluid in presence of Tenapanor, CP2 vs N3SP-1Δ7” value in the data set with mouse ileal loops (nanoparticle conjugated peptide 400 nM, Tenapanor (10 μM) in both incubation periods) is on record as “no difference in residual fluid”. Besides, in data set [1], the “surface zeta potential (electrophoretic light scattering)” value stood at 22.4±1.2 mV. For the same substance, the “nanoparticle diameter (DLS)” value in data set [1] (aqueous) is on record as 385±30 nm.

The values are drawn from patent US20260217768A1, “NANOPARTICLE-NHE3 PEPTIDE TO TREAT DIARRHEA” (The Johns Hopkins University, priority 2023, published 2026).
